Converted amounts (≈) assume the structure as drawn. Read-outs that look alike come from different tables or passages of the source.
Key:
[1] = tested on: P. falciparum line FCM 6 (chloroquinine-resistant); assay: microbe, parasite or virus in culture; type: cell-based; conditions: Plasmodium falciparum, FCM6, chloroquinine-resistant; two experiments, one line each
Procedure: (§1) The proliferation of the parasites is measured by incorporation of ^3 [H] hypoxanthine applied to the cultures 16 hours before the end of the culture. The radioactive hypoxanthine is absorbed by the developing parasites. The quantity absorbed is measured by a Beta counter in counts per minute.
(§2) Three P. faciparum lines M25, chloroquinine-sensitive, and FCM 6 and FCM 17, chloroquinine-resistant, were cultured at a parasitemia rate approaching 1%, at the trophozoite stage, for a period of 48 hours.

[2] = tested on: P. falciparum line FCM 17 (chloroquinine-resistant); assay: microbe, parasite or virus in culture; type: cell-based; conditions: Plasmodium falciparum, FCM17, chloroquinine-resistant; two experiments, one line each
Procedure: as §1, §2

[3] = tested on: P. yoelii, strain NS; assay: In vivo test in mice infected with chloroquinine-resistant P. yoelii, strain NS; conditions: 10 mg/kg
[4] = tested on: P. berghei, N strain; assay: In vivo test in mice infected with P. berghei, N strain; conditions: for Mortality: female SWISS mice, 4 subcutaneous injections D0-D2
Procedure: Methodology: the laboratory mice can be infected with various strains of rodent Plasmodium. Female SWISS mice (about 30 g) (5 per group) were inoculated on D0 with […] P. berghei parasites, chloroquinine-sensitive, lethal strain. The mice were treated between D0 and D2 using 4 subcutaneous injections of chloroquinine or of compound SN1, with a total dose of 1 or 10 mg/kg of weight. The parasitemia and mortality were monitored from D3, for at least 40 days.
The compound SN1 and its salt, SN1 ditartrate, were tested.

[5] = tested on: field strains (Francevilloises strains); assay: In vitro inhibition of parasite proliferation (3[H] hypoxanthine incorporation), field strains; type: cell-based, Plasmodium falciparum
Procedure: As mentioned above, the in vitro activity of organometallic complexes of the invention was measured on field strains.
as §1

[6] = tested on: P. falciparum line M25 (chloroquinine-sensitive); assay: In vitro activity on established line M25 (48 h culture); type: cell-based; conditions: Plasmodium falciparum, two experiments, one line each
Procedure: as §1, §2

For `CCN(CC)CCCC(C)Nc1ccnc2cc(Cl)ccc12` (centres unmarked) [Chloroquinine], the IC50 [1] was 0.492 mg/L (≈ 1.54 µM), the IC50 [2] was 0.555 mg/L (≈ 1.74 µM) and the “parasites detected / parasitemia” value [3] was “high parasitemia”. For the same compound, the Mortality ([4]; Exp 1, total dose 1 mg/kg) was 5/5, the Mortality ([4]; Exp 1, total dose 10 mg/kg) was 5/5 and the Mortality ([4]; Exp 2, total dose 1 mg/kg) was 5/5. The Mortality ([4]; Exp 2, total dose 10 mg/kg) was 5/5, the IC50 ([5]; Plasmodium falciparum, Strain No. 17) was 0.2 µM and the IC50 ([5]; Plasmodium falciparum, Strain No. 265) was > 1 µM. For the same compound, the IC50 ([5]; Plasmodium falciparum, Strain No. 309) was 0.98 µM, the IC50 ([5]; Plasmodium falciparum, Strain No. 823) was > 1 µM and the IC50 ([5]; Plasmodium falciparum, Strain No. 917) was 0.19 µM. For the same compound, the IC50 ([5]; Plasmodium falciparum, Strain No. 926) was > 1 µM, the IC50 ([5]; Plasmodium falciparum, Strain No. 935) was > 1 µM and the IC50 ([5]; Plasmodium falciparum, read-out: IC50 (range over strains), Francevilloises strains, 7 strains tested) was 0.19 to 1 µM. The IC50 ([5]; Plasmodium falciparum, read-out: ID 50, Strain No. 17) was 2 µM, the IC50 ([5]; Plasmodium falciparum, read-out: ID 50, Strain No. 265) was > 10 µM and the IC50 ([5]; Plasmodium falciparum, read-out: ID 50, Strain No. 309) was 9.8 µM. The IC50 ([5]; Plasmodium falciparum, read-out: ID 50, Strain No. 823) was > 10 µM, the IC50 ([5]; Plasmodium falciparum, read-out: ID 50, Strain No. 917) was 1.9 µM and the IC50 ([5]; Plasmodium falciparum, read-out: ID 50, Strain No. 926) was > 10 µM. For the same compound, the IC50 ([5]; Plasmodium falciparum, read-out: ID 50, Strain No. 935) was > 10 µM, the “chloroquinine-resistance of the strains” value ([5]; in words, Francevilloises strains) was “high chloroquinine-resistance” and the IC50 [6] was 0.069 mg/L (≈ 0.216 µM).

With `CN(C)Cc1ccc[c-]1CNc1ccnc2cc(Cl)ccc12.[Fe+2].c1cc[cH-]c1` (centres unmarked) [SN1] the Mortality ([4]; Exp 1, total dose 1 mg/kg) was 5/5, the Mortality ([4]; Exp 1, total dose 10 mg/kg) was 1/5 and the Mortality ([4]; Exp 2, total dose 1 mg/kg) was 5/5. The Mortality ([4]; Exp 2, total dose 10 mg/kg) was 0/5, the “in vivo activity compared with chloroquinine” value ([4]; in words, mice, P. berghei) was “better activity than chloroquinine in vivo” and the IC50 ([5]; Strain No. 17, read-out: IC50) was 0.02 µM. It also gave an IC50 ([5]; Strain No. 265, read-out: IC50) of 0.17 µM, an IC50 ([5]; Strain No. 309, read-out: IC50) of 0.11 µM and an IC50 ([5]; Strain No. 823, read-out: IC50) of 0.12 µM. It also gave an IC50 ([5]; Strain No. 917, read-out: IC50) of 0.01 µM, an IC50 ([5]; Strain No. 926, read-out: IC50) of 0.23 µM and an IC50 ([5]; Strain No. 935, read-out: IC50) of 0.12 µM. The “action on the sole chloroquinine-resistant strain tested so far” value ([5]; in words, in vitro) was “marked action” and the “action on the inhibition of parasitemia” value ([5]; in words, in vitro, compared with quinine) was “greater action on the inhibition of parasitemia than quinine”.

Source: patent US6127543A, “Antimalarial organometallic iron complexes” (Universite des Sciences et Technologies de Lille, priority 1995, dated 2000)
